In patent US9669016B2, “Antiparasitic effect of Bis[3,5-Bis(Benzylidene)-4-Oxo-1-Piperidinyl]amide Derivatives” (priority 2014, dated 2017) one finds weight loss and footpad swelling data, which are given here for one compound.

Data set [1] can be described thus: Weight and toxicity monitoring in treated infected mice. In kind it is in vivo, BALB/c mice. The settings on record: 10^5 infection experiment, daily IP treatment. As for the experimental part:
(§1) The in vivo experiments were comprised of four groups of five mice each: (1) infected, but not treated [control for the infection—100 μL of DMSO per day, drug diluent]; (2) treated with NC884, NC901 or NC2459, but not infected with the parasites [control for drug toxicity]; (3) infected with the parasites and treated with amphotericin B (8 mg/kg/day) [reference drug; positive control]; and (4) infected with the parasites and treated with NC884, NC901 or NC2459 [experimental group]. Luciferase expressing metacyclic promastigotes L. major (Freidlin V1) were obtained as described previously. Suspensions of 1×10^5 or 1×10^6 parasites per 50 μl of sterile DMEM (endotoxin-free) were injected with a 30G needle into the left hind footpad of BALB/c mice. Two weeks post-infection the compounds were administered once a day by intraperitoneal route, daily for 14 to 17 days. Twice a week, weights were recorded to monitor toxicity and the thickness of the infected footpad and the non-infected footpad was measured with digital calipers to monitor the progression of the disease. The parasitic load also was evaluated through in vivo imaging using luminescence (Kodak Image Station). The mice were injected intra-peritoneally with 150 mg/kg D-luciferin (Sigma, USA) 10 min before imaging, anesthetized with 1-2% isofluorane in oxygen during imaging and the net intensity emitted from the footpad was quantified using the KODAK Image Station software. Parasite burden was expressed as net intensity emitted from L. major infected footpad lesions normalized against the background fluorescence of uninfected mice. The presence/absence of parasites was confirmed by PCR using L. major methionine aminopeptidase (MetAP1) 1 specific primers: 5′-[…]-3′ (SEQ ID NO:1) and 5′-[…]-3′ (SEQ ID NO:2) on cDNA reverse transcribed from total RNA extracted from footpad lysate obtained by macerating footpad tissue fragments in Trizol (Invitrogen Life Technologies, United States) with the gentleMACS™ Dissociator (Miltenyi Biotec GmbH, Germany) following the manufacturer's protocol.

Data set [2] relates to L. major metacyclic promastigotes. Kind of data set: Murine model for cutaneous leishmaniasis (footpad infection). In kind it is in vivo, BALB/c mice. The conditions noted are these: 10^5 L. major metacyclic promastigotes, intraperitoneal daily treatment. As for the experimental part:
as §1

As for `C[C@@H]1[C@H](O)[C@@H](C)/C=C/C=C/C=C/C=C/C=C/C=C/C=C/[C@H](O[C@@H]2O[C@H](C)[C@@H](O)[C@H](N)[C@@H]2O)C[C@@H]2O[C@](O)(C[C@@H](O)C[C@@H](O)[C@H](O)CC[C@@H](O)C[C@@H](O)CC(=O)O[C@H]1C)C[C@H](O)[C@H]2C(=O)O` [amphotericin B, reference compound], the weight loss result in data set [1] is recorded as “much more dramatic loss in weight”. For the same compound, in data set [2], the footpad swelling result is on record as “reduced footpad swelling”.
